Data: ChEMBL document CHEMBL1125698, “Using theoretical descriptors in quantitative structure-activity relationships: some toxicological indices” (J Med Chem, 1991)

Tests used:
[1] = Toxicity determined using Tadpole Narcosis Test; details: frog
[2] = Toxicity determined using Golden Orfe Fish Test; details: leuciscus idus
Lithobates pipiens = test: Inhibition of Rana pipiens muscle activity.; assay type: functional, frog, Muscle tissue
[3] = The toxicity of compound was determined using Konemann's Industrial Pollutants Toxicity Test
[4] = Toxicity determined using Konemann's Industrial Pollutants Toxicity Test; details: fish
[5] = Toxicity determined using Microtox Test; assay type: ADME, Bacteria

| SMILES | Log C [1] | Log LC50 [2] | further results |
| --- | --- | --- | --- |
| C=CCCC | -2.364 | – | – |
| Oc1ccccc1 [PHENOL] | – | -0.256 | Log MBC (Lithobates pipiens): 1 |
| CC#N [ACETONITRILE] | – | -2.227 | – |
| CCCCCO [1-PENTANOL] | – | – | Log MBC (Lithobates pipiens): 1.2 |
| CBr [BROMOMETHANE] | -2.263 | – | – |
| CC(C)O [ISOPROPYL ALCOHOL] | -0.977 | -2.005 | Log MBC (Lithobates pipiens): 2.55; Log LC50 [3]: 5.07 |
| Cc1cccc(O)c1 [METACRESOL] | – | -0.694 | – |
| ClC(Cl)C(Cl)Cl [1,1,2,2-TETRACHLOROETHANE] | – | – | Log LC50 [4]: 2.34 |
| ClCCl [METHYLENE CHLORIDE] | – | – | Log LC50 [4]: 3.54 |
| Clc1cc(Cl)c(Cl)cc1Cl | – | – | Log LC50 [4]: 0.15 |
| CCCC(=O)OCC | -2.367 | – | – |
| CCCCCCO [1-HEXANOL] | – | -0.315 | Log MBC (Lithobates pipiens): 0.56 |
| Clc1cccc(Cl)c1Cl | – | – | Log LC50 [4]: 1.11 |
| CCCOC(C)=O [ACETIC ACID PROPYL ESTER] | -1.969 | – | – |
| Oc1ccc2ccccc2c1 [BETANAPHTHOL] | – | – | Log MBC (Lithobates pipiens): 0 |
| CCO [ALCOHOL] | -0.484 | – | Log MBC (Lithobates pipiens): 2.75; Log LC50 [4]: 5.38 |
| O=[N+]([O-])c1ccccc1 [NITROBENZENE] | – | -0.263 | Log MBC (Lithobates pipiens): 0.47 |
| CCCCOC(C)=O [ACETIC ACID BUTYL ESTER] | -2.374 | – | – |
| O=C1CCCC1 [CYCLOPENTANONE] | – | -1.359 | – |
| CCOC(C)=O [ETHYL ACETATE] | -1.502 | – | – |
| CC(C)(C)O [TERT-BUTANOL] | -1.429 | – | – |
| CCC(O)CC [3-PENTANOL] | – | – | Log LC50 [4]: 4.05 |
| c1ccccc1 [BENZENE] | -2.905 | -0.417 | Log LC50 [3]: 2.91 |
| c1ccncc1 [PYRIDINE] | – | – | Log MBC (Lithobates pipiens): 1.77 |
| Cc1ccccc1C [O-XYLENE] | -3.44 | – | Log LC50 [4]: 2.52 |
| CCCCOC(=O)CCCC | -3.504 | – | – |

| SMILES | Log C [1] | Log LC50 [2] | further results |
| --- | --- | --- | --- |
| Clc1cc(Cl)c(Cl)c(Cl)c1 | – | – | Log LC50 [4]: 0.57 |
| O=C1CCCCC1 [CYCLOHEXANONE] | – | -0.66 | – |
| Clc1cc(Cl)cc(Cl)c1 [1,3,5-TRICHLOROBENZENE] | – | – | Log LC50 [4]: 1.26 |
| CCCCC [PENTANE] | -2.649 | – | – |
| Clc1ccccc1 [CHLOROBENZENE] | – | – | Log LC50 [4]: 2.23 |
| CC(C)CO [ISOBUTANOL] | – | -1.43 | – |
| CCOC(=O)C(C)C | -2.3 | – | – |
| Cc1cccc(C)c1 [M-XYLENE] | – | – | Log LC50 [4]: 2.55 |
| ClC(Cl)(Cl)Cl [CARBON TETRACHLORIDE] | – | – | Log EC50 [5]: -0.22 |
| CCCCC(C)O (stereo not given) [2-HEXANOL] | – | -0.359 | – |
| c1ccc2ncccc2c1 [QUINOLINE] | – | – | Log MBC (Lithobates pipiens): 0.3 |
| CCC(=O)CC | -1.861 | – | – |
| CCCO [PROPANOL] | -1.021 | -1.972 | Log MBC (Lithobates pipiens): 2.4 |
| CCC(C)=O [BUTANONE] | 1.401 | -1.663 | – |
| Cc1cc(Cl)c(Cl)cc1Cl | – | – | Log LC50 [4]: 0.94 |
| CC(=O)c1ccccc1 [ACETOPHENONE] | -2.891 | – | – |
| CCC(C)O (stereo not given) [BUTANOL] | -1.433 | -1.477 | – |
| COC=O [FORMIC ACID METHYL ESTER] | -1.075 | – | – |
| ClCCCl [1,2-DICHLOROETHANE] | -2.374 | – | – |
| CCCl [ETHYL CHLORIDE] | -1.655 | – | – |
| CCCCCCCO [1-HEPTANOL] | – | -0.163 | Log MBC (Lithobates pipiens): 0.2 |
| CCC(C)(C)O [AMYLENE HYDRATE] | -1.859 | -0.907 | – |
| CC(Cl)CCl (stereo not given) | – | – | Log LC50 [4]: 3.01 |
| COc1ccccc1 [ANISOLE] | -2.493 | -0.305 | – |
| Nc1ccccc1 [ANILINE] | – | – | Log MBC (Lithobates pipiens): 1.3 |
| CC(=O)OCC(C)C [ACETIC ACID ISOBUTYL ESTER] | -2.33 | – | – |

| SMILES | Log C [1] | Log LC50 [2] | further results |
| --- | --- | --- | --- |
| CO [METHYL ALCOHOL] | 0.17 | – | Log MBC (Lithobates pipiens): 3.09 |
| C[N+](=O)[O-] [NITROMETHANE] | -1.08 | – | – |
| CC(C)=O [ACETONE] | -0.924 | -2.259 | Log MBC (Lithobates pipiens): 2.6; Log LC50 [3]: 5.04 |
| CCCC(O)CC (stereo not given) [HEXAN-3-OL] | – | -0.363 | – |
| OC1CCCC1 [CYCLOPENTANOL] | – | -0.97 | – |
| ClC(Cl)Cl [CHLOROFORM] | -3.065 | – | Log MBC (Lithobates pipiens): 1.5 |
| CCCCOCCCC | – | -0.303 | – |
| CCCCCl [BUTYL CHLORIDE] | – | – | Log LC50 [4]: 3.02 |
| CC(Cl)(Cl)Cl [TRICHLOROETHANE] | – | -0.087 | Log LC50 [4]: 2.85 |
| CCCCCCCCO [OCTANOL] | -3.148 | -0.594 | Log MBC (Lithobates pipiens): -0.016 |
| CCOC(=O)CC [ETHYL PROPIONATE] | -1.898 | – | – |
| Cc1ccccc1 [TOLUENE] | – | – | Log MBC (Lithobates pipiens): 1; Log LC50 [4]: 2.87 |
| CCCCC(=O)OCC | -2.716 | – | – |
| c1ccc2ccccc2c1 | -4.225 | – | – |
| Cc1ccc(C(C)C)c(O)c1 [THYMOL] | -3.574 | – | Log MBC (Lithobates pipiens): -0.52 |
| CCCCCOC(C)=O [ACETIC ACID PENTYL ESTER] | -2.727 | – | – |
| CCCC(C)O (stereo not given) [2-PENTANOL] | -1.861 | – | – |
| C1CCOC1 [TETRAHYDROFURAN] | – | -1.815 | – |
| CCOC=O [ETHOXYCARBONYL GROUP] | -1.111 | – | – |
| CCCCO [BUTYL ALCOHOL] | -1.463 | -1.432 | Log MBC (Lithobates pipiens): 1.78 |
| CCOCC [ETHER] | -1.389 | -1.722 | Log MBC (Lithobates pipiens): 1.93; Log LC50 [3]: 4.46 |
| c1ccc2c(c1)ccc1ccccc12 | -5.791 | – | – |
| OCc1ccccc1 [BENZYL ALCOHOL] | – | – | Log MBC (Lithobates pipiens): 1.3 |
| ClC=C(Cl)Cl [TRICHLOROETHYLENE] | – | -0.293 | – |
| CCCC(C)=O | -1.785 | – | – |
